Series [1] concerns C57 mice. Nature of the series: Forced swimming experiment, intraperitoneal administration to mice. The class given is in vivo. The note with it: Mus musculus, ip. As for the experimental part: The forced-swimming test is currently the most widely used classic method to evaluate the antidepressant effects of compounds in rodents. […] The time in immobile state of experimental animal is observed and recorded, which can be used to evaluate the effect of antidepressant compounds.
1 h and 24 h after a single intraperitoneal administration of 10 mg/kg, forced swimming tests were respectively carried out to investigate the effects of different compounds on depression-like behaviors of C57 mice.
(§1) Experimental animals were 6-week aged C57 mice, male, and C57 mice were purchased from Shanghai SLAC Laboratory Animal Co., Ltd., with a body weight of 20.45±0.19 g. Before the experiment, they arrived at the Animal Feeding Center of Shanghai Institute of Materia Medica, Chinese Academy of Sciences (Animal Production License: SCXK9[Shanghai]2004-0002, usage license: SYXK[Shanghai]2003-0029), and adapted for 3 days or more in animal facilities. They were bred at 6 animals/cage. The breeding environment was room temperature 23±0.2° C., with 12/12 hours alternation of day and night. Before the behavioral test, the animals should be moved to the behavioral test operation room 2 hours in advance to adapt to the environment and reduce their tension.
Preparation of the test product: each test compound was accurately weighed and dissolved in 0.9% NaCl solution, mixed thoroughly, and prepared as a 1 mg/ml solution, set aside.
(§2) 24 hours before the administration, the mice were placed in a cylindrical tank to adapt to the aquatic environment for 10 min. On the day of the behavioral test, the animals were respectively administered intraperitoneally once at 1 h and 24 h before the behavioral test. The mice were placed individually into a cylindrical glass tank with a height of 30 cm and a diameter of 20 cm. The water depth in the tank was 15 cm, so that the animals could not escape from the glass tank and their feet and tails could not touch the bottom of the tank, the water temperature was 23° C.-25° C. A 6 minute video was taken after the mouse entered into water. Since most animals were very active in the first two minutes, the immobility time in the following 4 minute were calculated (criterion of immobility: the mouse stops struggling in the water, stays still and has small limbs movement to maintain balance or to keep a floating state).
The antidepressant effect of a compound was evaluated by the ability of the compound to reduce the immobility time of the animal in the forced swimming test as compared with the blank group. The shorter the immobility time of the animal to be tested, the higher the inhibition rate and the stronger the antidepressant activity. Inhibition rate1 h(%)=immobility time(blank, 1 h)−immobility time(administration, 1 h)/immobility time(blank, 1 h)×100% Inhibition rate24 h(%)=immobility time(blank, 24 h)−immobility time(administration, 24 h)/immobility time(blank, 24 h)×100%

A further series addresses T1, hERG potassium channel (Homo sapiens, UniProt Q12809).
T1 construct: expressed in transfected cells
Briefly: hERG potassium channel inhibition experiment (automatic patch clamp, CHO-hERG cells). The class given is cell-based. The note with it: Qpatch, highest tested concentration 40 μM, read-out: IC50, blocking effect on the hERG potassium current. As for the experimental part:
Fully automatic patch clamps were used to test the blocking effect of the compounds of the present invention on the hERG potassium current on a stable cell line transfected with hERG potassium channels.
CHO-hERG cells were cultured in 175 cm^2 culture flask. When the cell grew to 60-80% confluence, the culture medium was removed. The cells were washed with 7 ml PBS (Phosphate Buffered Saline) once, and then 3 ml Detachin was added to digest.
After the digestion was completed, 7 ml culture medium was added to neutralize. The mixture was centrifuged, and after the supernatant was removed, 5 ml culture medium was added to resuspend to ensure the cell density was 2×10^6-5×10^6/ml.
Single-cell high-impedance sealing and whole-cell mode formation were all automatically completed by using the Qpatch instrument. After the recording mode was obtained, the cell was clamped at −80 millivolts. Before +40 millivolt depolarization stimulation for 5 seconds was given, −50 millivolt pre-voltage for 50 millisecond was first given, then repolarized to −50 millivolt for 5 seconds, and then returned to −80 millivolt. This voltage stimulus was applied every 15 seconds. After recording for 2 min, extracellular fluid was given, and recording was conducted for 5 min, and then the dosing process started. The compound concentration started from the lowest test concentration, and each test concentration was given for 2.5 min. […] At least 3 cells per concentration (n≥3) were tested.
20 mM compound mother liquor was diluted with extracellular fluid. 5 μL of 20 mM compound mother liquor was taken and added into 2495 μL extracellular fluid, so that it was diluted 500 times to 40 μM, and was then serially diluted 3 times in an extracellular fluid containing 0.2% DMSO to obtain the final concentration to be tested.
The highest tested concentration was 40 μM, and the concentrations were in order as follows: 40, 13.33, 4.44, 1.48, 0.49, 0.16 μM, totally 6 concentrations.
Experimental data were analyzed by XLFit software.
For orientation: hERG is a cardiac potassium channel; its block is linked to QT prolongation.

Series [2] concerns C57 mice. Nature of the series: Forced swimming experiment, oral administration to mice. The class given is in vivo. To be noted: inhibition of immobility time, C57 mice. As for the experimental part: 1 h and 24 h after a single oral administration of 20 mg/kg, forced swimming experiments were then carried out to investigate the effects of different compounds on depression-like behavior in C57 mice.
as §1, with “male,” for “male, and”
Preparation of the test product: each test compound was accurately weighed and dissolved in 0.9% NaCl solution, mixed thoroughly, and prepared into 1 mg/ml and 2 mg/ml solutions respectively, and set aside.
as §2, with “intragastrically” for “intraperitoneally”
The antidepressant effect of a compound was evaluated by the ability of the compound to reduce the immobility time of the animal in the forced swimming test as compared with the blank group. Inhibition rate1 h(%)=immobility time(blank, 1 h)−immobility time(administration, 1 h)/immobility time(blank, 1 h)×100% Inhibition rate24h(%)=immobility time(blank, 24 h)−immobility time(administration, 24 h)/immobility time(blank, 24 h)×100%

The nature of series [3]: In vivo pharmacokinetic experiment in mice. To be noted: C57 mice. On the procedure:
Healthy male C57 mice were randomly divided into groups with 3 mice in each group, and the test compounds were administrated intragastrically or by intravenous injection. See Table 6 below for specific arrangements:
(§3) Each test compound was dissolved in physiological saline to prepare a certain concentration of solution for administration.
(§4) One day before administration, the mice were fasted and allowed to drink freely for 12-14 h. The mice were fed 4 h after administration.
(§5) 0.030 mL of blood was took from each animal each time through the orbit, and anticoagulated with EDTAK2. The collection time points were as follows: in PO group, 5 min, 15 min, 30 min, 1 h, 2 h, 4 h, 6 h, 8 h, 24 h after administration of test substance; in IV group, 2 min, 5 min, 15 min, 30 min, 1 h, 2 h, 4 h, 6 h, 8 h, 24 h after administration of test substance. After blood samples were collected, they were placed on ice and centrifuged to separate the plasma within 30 minutes (centrifugation conditions: 5000 rpm, 10 minutes, 4° C.). The sample were stored at −80° C. before analysis.

Series [4] in a line: In vivo pharmacokinetic experiment in rats. The note with it: SD rats. As for the experimental part: Healthy male SD rats were randomly divided into groups with 3 rats in each group, and the test compounds were administrated intragastrically or by intravenous injection. See Table 8 below for specific arrangements:
as §3
as §5, with “One day before administration, the rats were fasted and allowed to drink freely for 12-14 h. The rats were fed 4 h after administration. 0.030 mL” for “0.030 mL”, “anticoagulated with EDTAK2 anticoagulation. The collection” for “anticoagulated with EDTAK2. The collection”, “group, 5 min, 10 min, 15” for “group, 5 min, 15”

Series [5] can be described thus: Distribution in mouse brain tissue. The class given is in vivo, C57 mice. As for the experimental part: Healthy male C57 mice were randomly divided into groups with 3 mice in each group, and the test compound was administrated intragastrically. See Table 10 below for specific arrangements:
as §3, §4
After the animals were bled, the brain tissue was collected. After washing, 50% ice methanol was added for homogenate at 1:4 (m/v). The collection time points was 10 min, 15 min, 30 min, 1 h, 2 h after administration of the test substance; 30.0 μL of tissue sample was taken (the sample was taken out from the refrigerator at −80° C., vortexed for 30 seconds after natural melting at room temperature) and added into a 1.5 mL centrifuge tube. 300.0 μL internal standard solution (30 ng/mL […] acetonitrile solution) was added, the mixture was vortex for 60 seconds and then centrifuged for 3 minutes (centrifugal force was 12000 rpm); 75 μL of the supernatant was taken and transferred to 96-well injection plate loaded with equal volume of water, shaken and mixed well, and subjected to LC-MS/MS analysis, wherein injection volume was 10 μL.

The mark [6] stands for this setting: male, mouse, iv, 5 mg/kg i.v., plasma.
[7] abbreviates: male, mouse, po, 20 mg/kg p.o., plasma.
Where [8] appears, read: male, rat, iv, 10 mg/kg i.v., plasma.
Setting [9] is: male, rat, po, 10 mg/kg p.o., plasma.
Where [10] appears, read: male, rat, po, 100 mg/kg p.o., plasma.

Where a name gives a salt, the structure may show the parent alone. Read-outs that look alike come from different tables or passages of the source.

As a reminder, the IC50 is the midpoint of a concentration-inhibition curve. As usually defined, the MRT is a mean duration of stay, worked out from the concentration-time curve. As usually defined, the half-life is the time in which the quantity being followed falls by half. Low values mean fast loss, high ones slow loss. The clearance is the rate of elimination divided by the concentration. As a reminder, the Cmax is the peak of the concentration-time curve. As usually defined, the Tmax is the time from dosing to the highest level.

T1 sequence (Q12809 whole entry): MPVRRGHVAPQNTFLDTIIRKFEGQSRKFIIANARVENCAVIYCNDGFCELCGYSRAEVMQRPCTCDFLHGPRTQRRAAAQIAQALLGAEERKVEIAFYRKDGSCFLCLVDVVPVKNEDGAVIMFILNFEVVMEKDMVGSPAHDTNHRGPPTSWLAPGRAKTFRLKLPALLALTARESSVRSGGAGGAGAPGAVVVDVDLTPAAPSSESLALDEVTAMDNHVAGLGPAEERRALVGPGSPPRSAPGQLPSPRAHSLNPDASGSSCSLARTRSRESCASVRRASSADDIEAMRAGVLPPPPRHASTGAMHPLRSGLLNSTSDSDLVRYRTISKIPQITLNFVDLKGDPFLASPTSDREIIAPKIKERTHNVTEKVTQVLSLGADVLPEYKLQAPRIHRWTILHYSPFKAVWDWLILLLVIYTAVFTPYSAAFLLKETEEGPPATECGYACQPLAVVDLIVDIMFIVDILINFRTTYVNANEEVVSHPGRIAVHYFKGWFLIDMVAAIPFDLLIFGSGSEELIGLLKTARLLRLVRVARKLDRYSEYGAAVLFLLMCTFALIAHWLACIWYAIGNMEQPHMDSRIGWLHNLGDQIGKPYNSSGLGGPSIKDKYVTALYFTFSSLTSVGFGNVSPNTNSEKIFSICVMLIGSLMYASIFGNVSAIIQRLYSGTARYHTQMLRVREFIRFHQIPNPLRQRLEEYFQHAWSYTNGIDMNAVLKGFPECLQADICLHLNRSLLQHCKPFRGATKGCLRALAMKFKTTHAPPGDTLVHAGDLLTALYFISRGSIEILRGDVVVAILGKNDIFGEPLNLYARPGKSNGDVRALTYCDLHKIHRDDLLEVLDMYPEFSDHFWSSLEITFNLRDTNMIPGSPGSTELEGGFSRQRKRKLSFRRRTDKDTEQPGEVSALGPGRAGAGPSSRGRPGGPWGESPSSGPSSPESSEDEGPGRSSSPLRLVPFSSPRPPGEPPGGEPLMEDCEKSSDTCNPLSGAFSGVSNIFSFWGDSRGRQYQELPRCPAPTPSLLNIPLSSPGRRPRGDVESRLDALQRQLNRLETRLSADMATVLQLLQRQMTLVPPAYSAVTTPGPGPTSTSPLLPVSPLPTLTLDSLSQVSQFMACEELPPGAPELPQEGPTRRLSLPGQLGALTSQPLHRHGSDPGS

With `NC1(c2ccccc2C(F)(F)F)CCCC(O)C1=O` (centres unmarked) [Compound 45, 2-amino-6-hydroxy-2-(2-(trifluoromethyl)phenyl)cyclohexane-1-one hydrochloride], the inhibition in vivo at 10 mg/kg with C57 mice [1] (1 h, read-out: 1 h inhibition rate) came to 33 ± 4.1%; with C57 mice [1] (24 h, read-out: 24 h inhibition rate) it was 44.5 ± 2.2%. For the same molecule, the IC50 on hERG potassium channel was greater than 40 µM.
Take `Cl.N[C@@]1(c2ccc(C(F)(F)F)cc2)CCC[C@@H](O)C1=O` [Compound 50, (2R,6R)-2-amino-6-hydroxy-2-(4-(trifluoromethyl)phenyl)cyclohexane-1-one hydrochloride]: the “1 h inhibition rate” value in the series on C57 mice [2] (forced swimming 1 h after single oral (intragastric) 20 mg/kg) came to 34.5 ± 3.1%. For the same molecule, the “24 h inhibition rate” value with C57 mice [2] (forced swimming 24 h after single oral (intragastric) 20 mg/kg) was determined as 35.6 ± 3.6%. The AUC0-t came out at 3022 ngh/mL in series [3] (5 mg/kg i.v., plasma); 13548 ngh/mL in series [3] (20 mg/kg p.o., plasma); 10976 ngh/mL in series [4] (10 mg/kg i.v., plasma); 9060 ngh/mL in series [4] (10 mg/kg p.o., plasma); 85478 ngh/mL in series [4] (100 mg/kg p.o., plasma). Moreover, the “AUC0-∞” value in series [3] (5 mg/kg i.v., plasma) was determined as 3075 ngh/mL; in series [3] (20 mg/kg p.o., plasma), 13624 ngh/mL; in series [4] (10 mg/kg i.v., plasma), 11306 ngh/mL; in series [4] (10 mg/kg p.o., plasma), 9533 ngh/mL; in series [4] (100 mg/kg p.o., plasma), 87916 ngh/mL; in series [5] (C57 mouse brain tissue, 20 mg/kg p.o.) it was 18509 ng·h/g. In addition, the F is given as 112% in series [3] (20 mg/kg p.o. vs 5 mg/kg i.v.), 82.5% in series [4] (10 mg/kg p.o.) and 77.8% in series [4] (100 mg/kg p.o.). Besides, the mean residence time MRT was determined as 1.29 h in series [3] (setting [6]); 2.49 h in series [3] (setting [7]); 4.56 h in series [4] (setting [8]); 6.29 h in series [4] (setting [9]); 5.47 h in series [4] (setting [10]). For the same molecule, the half-life in series [3] (setting [6]) is 1.67 h; in series [3] (setting [7]), 4.16 h; in series [4] (setting [8]), 4.84 h; in series [4] (setting [9]), 5.73 h; in series [4] (setting [10]), 4.86 h; in series [5] (male, po, C57 mouse brain tissue, 20 mg/kg p.o.), 1.44 h. Also, the clearance was 27.2 mL/min/kg in series [3] (male, mouse, plasma, iv, 5 mg/kg i.v.) and 14.8 mL/min/kg in series [4] (male, rat, plasma, iv, 10 mg/kg i.v.). Also, the Vd was 2.1 L/kg in series [3] (male, mouse, plasma, iv, 5 mg/kg i.v., read-out: Vss) and 4.03 L/kg in series [4] (male, rat, plasma, iv, 10 mg/kg i.v., read-out: Vss). In addition, the Cmax in series [3] (setting [7]) was 8100 ng/mL; in series [4] (setting [9]), 3110 ng/mL; in series [4] (setting [10]), 17300 ng/mL. Besides, the Tmax is 6.6 min in series [3] (setting [7]), 0.31 h in series [4] (setting [9]) and 0.67 h in series [4] (setting [10]). In series [5] (male, brain, po, C57 mouse, 20 mg/kg p.o. (intragastrically), 10 min), this molecule registered a concentration at 10 min of 19400 ng/g.

The record behind these values is patent publication US12351565B2, “Aromatic compound and preparation method therefor and use thereof” (SHANGHAI JIANHE PHARMACEUTICAL & TECHNOLOGY CO. LTD., priority 2018, dated 2025).
